Results taken from US20120045501A1, “CONNEXIN ENHANCES CHEMOTHERAPY-INCLUDED APOPTOSIS IN HUMAN CANCER CELLS INHIBITING TUMOR CELL PROLIFERATION” (Northwest Hospital, priority 2001, published 2012).
Where “and” joins values, the source holds several entries; their conditions need not be identical. Identical values can stand only once.

Assays:
U251N23 cells [1] = assay: Apoptosis, annexin V assay; assay type: cell-based, human
Procedure: (§1) Cells, treated or not VP16, were analyzed with the TACS Annexin V-FITC kit (Trevigen, Gaithersburg, Md.) according to manufacturer's instructions. Apoptosis was detected by the appearance of patches of fluorescence on the cell surface.
(§2) It was next determined whether the enhanced sensitivity to chemotherapeutic agents induced by over-expression of cx43 was associated with the increase of drug-induced apoptosis. Cells collected at various time points post-treatment with 1 μM VP16 were used for apoptosis assays. First, nuclear condensation, chromatin fragmentation and formation of apoptotic bodies were detected by Hoechst 33258 dye staining upon treatment with VP16. […] The results were further confirmed by both 1) TUNEL assay, which detects double- as well as single-stranded DNA breaks during apoptosis by labeling the free 3′-OH termini in an enzymatic reaction (terminal deoxynucleotidyl transferase), and annexin V assay, which detects the exposed phosphotidylserine during apoptosis.

U251cx43-216 cells [2] = assay: Apoptosis, annexin V assay; assay type: cell-based, human
Procedure: as §1, §2

U251N23 cells [3] = assay: Apoptosis, Hoechst dye stain; assay type: cell-based, human; conditions: U251N23, 1 μM VP16, D4
Procedure: The assay was performed as we previously described (Huang et al., Cell Death Differ. 5:96-106 (1998)). Briefly, cells were fixed in Carnoy's solution (methanol:glacial […]; 3:1) and stained with 5 μg/ml of bisbenzimide trihydrochloride (Hoechst 33258) for 20 min. The morphology of nuclei was then observed with a Zeiss (Thornwood, N.Y.) photomicroscope II. At least 500 nuclei in each cell line were counted. Experiments were repeated four times.
as §2

U251cx43-217 cells [4] = assay: Cell-cycle distribution by FACScan; assay type: cell-based, human; conditions: U251cx43-217, VP16 1 × 10^−6 M
Procedure: (§3) Cell-cycle distribution was determined by flow cytometry as described previously (Huang et al., Int. J. Cancer 77:880-886 (1998)). Briefly, cells were seeded in 100 mm plates (5×10^5 per plate), incubated for 24 hours, and then treated with VP16 or vehicle. At days 1 and 2 of treatment, cells were collected, fixed in 70% ethanol and stained with propidium iodine. The DNA content of cells was then analyzed in a fluorescence cell sorter (FACSCalibur, Becton Dickinson, Mountain View, Calif.).
(§4) The possibility was assessed by treatment of the cells with VP16 for 24 and 48 hours, and cell-cycle distribution was then determined by FACScan. […] Although there was a slight decrease of S phase in cx43-transfected cells compared with control transfected cells at 24 hours after VP16 treatment, it was not statistically significant.

U251N23 cells [5] = assay: Cell-cycle distribution by FACScan; assay type: cell-based, human; conditions: U251N23, VP16 1 × 10^−6 M
Procedure: as §3, §4

U251cx43-216 cells [6] = assay: Cell-cycle distribution by FACScan; assay type: cell-based, human; conditions: U251cx43-216, VP16 1 × 10^−6 M
Procedure: as §3, §4

U251cx43-216 cells [7] = assay: MTT cell viability assay
U251N23 cells [8] = assay: Clonogenicity (cell survival) assay; assay type: cell-based, human
Procedure: (§5) The surviving cell fraction was determined by clonogenicity assay as previously described (Huang et al., J. Cell Biol. 133:211-220 (1996)). Cells were seeded at a density of 500 cells per 60 mm plate and incubated overnight and then treated with drugs; culture was then continued for 3 weeks. Clones were fixed in 4% formaldehyde-PBS and stained with Giemsa solution. Colonies containing more than 50 cells were counted and the fraction of surviving cells was calculated. The results represented the average of three separate experiments.
(§6) Values at OD 570 reflect the relative number of viable cells.

U251cx43-216 cells [9] = assay: Clonogenicity (cell survival) assay; assay type: cell-based, human
Procedure: as §5, §6

T98Gcx43-220 cells = assay: MTT cell viability assay; assay type: cell-based; conditions: Homo sapiens, 144 h, day 6 after treatment, T98Gcx43-220 (cx43-transfected)
Procedure: (§7) In vitro viability was determined by the 3-(4,5-dimethylthiazol-2yl)-2,5-diphenyltetrazolium bromide (MTT) colorimetric assay as described in (Huang et al., Cancer Res. 55:5054-5062 (1995)). Cells (1×10^3) were plated in triplicate in 96 well microplates overnight and treated with 5 different concentrations of VP16, Tax and DOX, respectively. […] Absorbance values at 570 nm were plotted as a measure of the relative number of cells. […] Both methods gave the identical results.
as §6

U251cx43-217 cells [10] = assay: MTT cell viability assay; assay type: cell-based; conditions: Homo sapiens, 144 h, day 6 after treatment, U251cx43-217 (cx43-transfected)
Procedure: as §7, §6

U251N23 cells [11] = assay: MTT cell viability assay; assay type: cell-based; conditions: Homo sapiens, 144 h, day 6 after treatment, U251N23 (control-transfected)
Procedure: as §7, §6

U251N2 cells = assay: MTT cell viability assay; assay type: cell-based; conditions: Homo sapiens, 144 h, day 6 after treatment, U251N2 (control-transfected)
Procedure: as §7, §6

T98GN28 cells = assay: MTT cell viability assay; assay type: cell-based; conditions: Homo sapiens, 144 h, day 6 after treatment, T98GN28 (control-transfected)
Procedure: as §7, §6

U251N23 cells [12] = assay: Apoptosis, TUNEL assay; assay type: cell-based, human; conditions: U251N23, 1 μM VP16, D2
Procedure: (§8) Cells (1 to 3×10^5) were seeded onto glass slides in 8-well plates overnight, and then treated with VP16 for 48 hours. Apoptotic cells were then analyzed with a TUNEL-based in situ cell death detection kit (Boehringer-Mannheim, Mannheim, Germany). Fluorescent cells were observed under a fluorescence microscope and viewed as positive cells. The experiment was repeated twice.
as §2

U251cx43-216 cells [13] = assay: Apoptosis, TUNEL assay; assay type: cell-based, human; conditions: U251cx43-216, 1 μM VP16, D2
Procedure: as §8, §2

Compound: COc1cc([C@@H]2c3cc4c(cc3[C@@H](O[C@@H]3O[C@@H]5CO[C@@H](C)O[C@H]5[C@H](O)[C@H]3O)[C@H]3COC(=O)[C@H]23)OCO4)cc(OC)c1O [VP16, Etoposide]
- Percentage of apoptotic cells, annexin stain (U251N23 cells [1]; U251N23, 1 μM VP16, D2): 5.5 +/− 0.7%
- Percentage of apoptotic cells, annexin stain (U251N23 cells [1]; U251N23, 1 μM VP16, D4): 11.5 +/− 2.1%
- Percentage of apoptotic cells, annexin stain (U251cx43-216 cells [2]; U251cx43-216, 1 μM VP16, D2): 24.5 +/− 0.7%
- Percentage of apoptotic cells, annexin stain (U251cx43-216 cells [2]; U251cx43-216, 1 μM VP16, D4): 42.0 +/− 5.6%
- Percentage of apoptotic cells, Hoechst stain (U251N23 cells [3]): 8.8% and 8.8 +/− 2.4%
- Cell cycle distribution, G1 phase (U251cx43-217 cells [4]; day 1): 12.05%
- Cell cycle distribution, G2 phase (U251cx43-217 cells [4]; day 1): 77.84%
- Cell cycle distribution, S phase (U251cx43-217 cells [4]; day 1): 10.11%
- Cell cycle distribution, G1 phase (U251cx43-217 cells [4]; day 2): 11.39%
- Cell cycle distribution, G2 phase (U251cx43-217 cells [4]; day 2): 88.61%
- Cell cycle distribution, S phase (U251cx43-217 cells [4]; day 2): 0%
- Cell cycle distribution, G1 phase (U251N23 cells [5]; day 1): 7.37%
- Cell cycle distribution, G2 phase (U251N23 cells [5]; day 1): 81.49%
- Cell cycle distribution, S phase (U251N23 cells [5]; day 1): 11.14%
- Cell cycle distribution, G1 phase (U251N23 cells [5]; day 2): 5.78%
- Cell cycle distribution, G2 phase (U251N23 cells [5]; day 2): 94.22%
- Cell cycle distribution, S phase (U251N23 cells [5]; day 2): 0%
- Cell cycle distribution, G1 phase (U251cx43-216 cells [6]; day 1): 10.95%
- Cell cycle distribution, G2 phase (U251cx43-216 cells [6]; day 1): 80.57%
- Cell cycle distribution, S phase (U251cx43-216 cells [6]; day 1): 8.48%
- Cell cycle distribution, G1 phase (U251cx43-216 cells [6]; day 2): 8.44%
- Cell cycle distribution, G2 phase (U251cx43-216 cells [6]; day 2): 90.81%
- Cell cycle distribution, S phase (U251cx43-216 cells [6]; day 2): 0.75%
- IC50 (U251cx43-216 cells [7]; Homo sapiens, 144 h): 0.39 µM
- level of toxicity (measured as IC50) in U251cx43-216 relative to U251N23 (U251cx43-216 cells [7]; MTT assay, higher in cx43-transfected cells): about 2 fold
- Colony formation (colonies counted) (U251N23 cells [8]; U251N23, 1 × 10^−7, 3 weeks): 36 +/− 1
- Colony formation (colonies counted) (U251N23 cells [8]; U251N23, 4 × 10^−6, 3 weeks): 9 +/− 1
- Colony formation (colonies counted) (U251N23 cells [8]; U251N23, 4 × 10^−7, 3 weeks): 129 +/− 16
- Colony formation (colonies counted) (U251cx43-216 cells [9]; U251cx43-216, 1 × 10^−7, 3 weeks): 3 +/− 1
- Colony formation (colonies counted) (U251cx43-216 cells [9]; U251cx43-216, 4 × 10^−6, 3 weeks): 2 +/− 1
- Colony formation (colonies counted) (U251cx43-216 cells [9]; U251cx43-216, 4 × 10^−7, 3 weeks): 44 +/− 5
- IC50 (T98Gcx43-220 cells): 0.76 µM
- IC50 (U251cx43-217 cells [10]): 0.33 µM
- IC50 (U251N23 cells [11]): 0.86 µM
- IC50 (U251N2 cells): 0.8 µM
- IC50 (T98GN28 cells): 1.34 µM
- Percentage of apoptotic cells, TUNNEL assay (U251N23 cells [12]): 1.6 +/− 2.3%
- Percentage of apoptotic cells, TUNNEL assay (U251cx43-216 cells [13]): 13.3 +/− 4.5%
